Experimental data as given in patent EP3150201B1, “COMPOSITE PREPARATION COMPRISING 5- -REDUCTASE INHIBITOR-CONTAINING FILM COATING LAYER, AND METHOD FOR PRODUCING THE COMPOSITE PREPARATION” (Hanmi Pharm. Co., Ltd., priority 2014, dated 2016).

Experiments:
[1] = Solubility test of finasteride and coating materials (visual observation); assay type: physicochemical; details: organic solvent-water mixture solvents of Comparative Example 1, 2, 5, 6, and 7; visually observed
Experimental: Finasteride, Kollicoat® IR, povidone, and polyvinyl alcohol were added to the organic solvent-water mixture solvents in a variety of ratios presented in Tables 1 to 4, and it was visually observed whether finasteride, Kollicoat® IR, povidone, and polyvinyl alcohol were soluble or not in each of the organic solvent-water mixture solvents.

[2] = Crystalline form analysis of dried film by X-ray diffractometry (Test Example 4); assay type: physicochemical; details: raw material powder or dried film from the film coating solution
Experimental: Each film coating solution prepared in Examples 2 and 7 and Comparative Example 2 was sprayed on a Petri dish and dried to form a film. These films were collected, and crystalline forms thereof were analyzed using an X-ray diffractometer (D8 Advance, Bruker) with Cu X-ray radiation at a voltage of 40 kV, at a current of 100 mA, and with a scan rate of 3 deg/min. The results of the X-ray diffractometry of finasteride powder as a raw material, and the dried films prepared using the film coating solutions of Examples 2 and 7 and Comparative Example 2 are shown in FIG. 5.

soluble or not [1]: insoluble
crystalline form [2]: crystalline
SMILES: CC(C)(C)NC(=O)[C@H]1CC[C@H]2[C@@H]3CC[C@H]4NC(=O)C=C[C@]4(C)[C@H]3CC[C@]12C [Finasteride, finasteride]
